According to publication PMC4648043, “Development of Small-Molecule Trypanosoma brucei N-Myristoyltransferase Inhibitors: Discovery and Optimisation of a Novel Binding Mode” (Chemmedchem, 2015):
Like-named read-outs stand apart in the source and are kept apart here.

How the values were obtained:
TbNMT = target: T1, TbNMT (Trypanosoma brucei brucei, UniProt Q388H8); test: biochemical; type: biochemical; conditions: for IC50: mean of two or more determinations; for LE TbNMT (ligand efficiency): calculated as 0.6 ln(IC50)/(heavy atom count)
T1 sequence (Q388H8 1-446): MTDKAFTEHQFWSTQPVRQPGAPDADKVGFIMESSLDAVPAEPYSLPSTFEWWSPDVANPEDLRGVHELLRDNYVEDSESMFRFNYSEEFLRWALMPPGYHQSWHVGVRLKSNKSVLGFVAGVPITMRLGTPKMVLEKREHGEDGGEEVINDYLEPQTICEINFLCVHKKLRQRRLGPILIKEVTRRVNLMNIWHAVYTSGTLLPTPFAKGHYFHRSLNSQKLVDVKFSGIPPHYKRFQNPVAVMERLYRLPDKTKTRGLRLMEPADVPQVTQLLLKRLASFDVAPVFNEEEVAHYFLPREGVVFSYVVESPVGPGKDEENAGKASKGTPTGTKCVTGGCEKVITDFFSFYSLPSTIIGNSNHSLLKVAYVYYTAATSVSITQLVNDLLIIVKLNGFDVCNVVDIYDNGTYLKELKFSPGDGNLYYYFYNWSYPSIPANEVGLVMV
Procedure: (§1) Parasite and NMT assays: These were carried out as described previously.[8–10]

T. brucei = T. brucei parasite growth assay; type: cell-based, Trypanosoma brucei; conditions: for EC50: Trypanosoma brucei, mean of two or more determinations; for Selectivity ratio: hNMT IC50/T. brucei cell assay EC50
Procedure: as §1

hNMT = target: T2, hNMT (Homo sapiens, UniProt P30419); test: human NMT enzyme inhibition assay; type: biochemical; conditions: mean of two or more determinations
T2 sequence (P30419 1-496): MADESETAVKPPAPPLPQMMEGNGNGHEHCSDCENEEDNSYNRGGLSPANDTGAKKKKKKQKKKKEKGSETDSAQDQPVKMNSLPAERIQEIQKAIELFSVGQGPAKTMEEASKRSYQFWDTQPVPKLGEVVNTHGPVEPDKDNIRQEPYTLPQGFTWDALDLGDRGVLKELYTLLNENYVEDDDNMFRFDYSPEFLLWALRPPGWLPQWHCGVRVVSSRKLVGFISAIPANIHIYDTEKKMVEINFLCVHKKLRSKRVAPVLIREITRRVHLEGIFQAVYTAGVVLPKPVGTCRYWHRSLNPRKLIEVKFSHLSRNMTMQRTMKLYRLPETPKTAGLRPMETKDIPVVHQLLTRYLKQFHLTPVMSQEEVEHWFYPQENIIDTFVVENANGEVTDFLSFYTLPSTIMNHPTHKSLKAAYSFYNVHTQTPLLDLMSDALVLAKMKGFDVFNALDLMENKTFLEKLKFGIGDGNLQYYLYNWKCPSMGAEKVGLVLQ
Procedure: as §1

hMRC5 [1] = test: MRC5 cell assay; type: cell-based; conditions: Homo sapiens, mean of two or more determinations
[2] = In vitro intrinsic clearance assay (CLint (m)); type: in vitro ADME; conditions: female CD1 mouse liver microsomes, 0.5 μM compound
Procedure: […]; 0.5 mg (mL 50 mM potassium phosphate buffer)^−1, pH 7.4), and the reaction was started by the addition of excess NADPH (8 mg (mL 50 mM potassium phosphate buffer)^−1, pH 7.4). Immediately, at time zero, then at 3, 6, 9, 15 and 30 min, an aliquot (50 μL) of the incubation mixture was removed and mixed with acetonitrile (100 μL) to stop the reaction. Internal standard was added to all samples, the samples were centrifuged (10 min, 5 °C, 3270 g) to sediment precipitated protein and the plates then sealed prior to UPLC–MS/MS analysis using a Quattro Premier XE (Waters Corp., USA).
XLfit (IDBS, UK) was used to calculate the exponential decay and consequently the rate constant (k) from the ratio of peak area of test compound to internal standard at each time point. The rate of intrinsic clearance (CLint: [mL min^−1 (g liver)^−1]) of each test compound was then calculated using Equation (1), in which V [mL (mg protein)^−1] is the incubation volume per mg protein added, and microsomal protein yield is taken as 52.5 mg protein per gram of liver. Verapamil (0.5 μM) was used as a positive control to confirm acceptable assay performance.

[3] = In vitro plasma protein binding, equilibrium dialysis; type: in vitro ADME; conditions: female CD1 mouse plasma, equilibrium dialysis 5 h; read-out: PPB (converted)
Procedure: In vitro plasma protein binding experiments: In brief, a 96-well equilibrium dialysis apparatus was used to determine the free fraction in plasma for each compound (HT Dialysis LLC, Gales Ferry, CT, USA). Membranes (12-14 kDa cutoff) were conditioned in deionised water for 60 min, followed by conditioning in 80:20 deionised water/EtOH for 20 min, and then rinsed in isotonic buffer before use. Female CD1 mouse plasma was removed from the freezer and allowed to thaw on the day of experiment. Thawed plasma was then centrifuged (Allegra […], Beckman Coulter, USA, 10 min, 5 °C, 3270 g), spiked with test compound (10 μg g^-1), and 150 μL aliquots (n=6 replicate determinations) loaded into the 96-well equilibrium dialysis plate. Dialysis versus isotonic buffer (150 μL) was carried out for 5 h in a temperature-controlled incubator at ∼37 °C (Barworld Scientific Ltd., UK) using an orbital microplate shaker at 125 rpm (Barworld Scientific). At the end of the incubation period, aliquots of plasma or buffer were transferred to micronic tubes (Micronic B.V., the Netherlands), and the composition in each tube was balanced with control fluid such that the volume of buffer to plasma was the same. […] All samples were analysed by UPLC-MS/MS on a Quattro Premier XE Mass Spectrometer (Waters Corp., USA). The unbound fraction was determined as the ratio of the peak area in buffer to that in plasma.

hMRC5 [4] = system: hMRC5; parameters: method as in PMID 20360736; conditions: previously published inhibitor; cited from earlier work

| Compound | IC50 (TbNMT; IC50 TbNMT) [µM] | LE TbNMT (ligand efficiency) (TbNMT) | EC50 (T. brucei) [µM] | IC50 (hNMT) [µM] | EC50 (hMRC5 [1]) [µM] | CLint (m) [2] | IC50 (TbNMT; read-out: IC50 TbNMT) [µM] | Selectivity ratio (T. brucei) | fraction unbound at 5 h, 10 μg g^−1 [3] | EC50 (hMRC5 [4]) [µM] |
| --- | --- | --- | --- | --- | --- | --- | --- | --- | --- | --- |
| CCOC(=O)CN1C(=O)COc2ccccc21 [Compound 14, Ethyl 2-(3-oxo-2H-benzo[b][1,4]oxazin-4(3H)-yl)acetate] | 12 | 0.42 | > 50 | > 100 | > 50 |  |  |  |  |  |
| Cc1cc(CN2C(=O)COc3c(CCCCC4CCNCC4)cccc32)no1 [Compound 39, 4-((5-Methylisoxazol-3-yl)methyl)-8-(4-(piperidin-4-yl)butyl)-2H-benzo[b][1,4]oxazin-3(4H)-one] |  |  | 0.41 |  | > 50 | 2.0 mL min^−1 (g liver)^−1 |  |  |  |  |
| Cc1cc(CN2C(=O)COc3c(CCCCN4CCCN(C)CC4)cccc32)no1 [Compound 40, 4-(4-(4-((5-Methylisoxazol-3-yl)methyl)-3-oxo-3,4-dihydro-2H-benzo[b][1,4]oxazin-8-yl)butyl)homopiperazine-1-methyl] |  | >0.38 | 0.08 | 1 | 24 |  | < 0.002 | 13 |  |  |
| Cc1cc(CN2C(=O)COc3c(CCCCC4CCN(C)CC4)cccc32)no1 [Compound 41, 4-((5-Methylisoxazol-3-yl)methyl)-8-(4-(1-methylpiperidin-4-yl)butyl)-2H-benzo[b][1,4]oxazin-3(4H)-one] |  |  | 0.19 |  | 19 | 10 mL min^−1 (g liver)^−1 |  |  | 0.18 |  |
| Cc1cc(CN2C(=O)COc3cc(CCCOC[C@@H]4CCN(C)C4)ccc32)no1 [Compound 42, (R)-4-((5-Methylisoxazol-3-yl)methyl)-7-(3-((1-methylpyrrolidin-3-yl)methoxy)propyl)-2H-benzo[b][1,4]oxazin-3(4H)-one] |  | 0.38 | 0.35 | 24 | > 50 | 7.0 mL min^−1 (g liver)^−1 | 0.009 | 69 |  |  |
| Cc1cc(CN2C(=O)COc3cc(CCCCC4CCN(C)CC4)ccc32)no1 [Compound 44, 4-((5-Methylisoxazol-3-yl)methyl)-7-(4-(1-methylpiperidin-4-yl)butyl)-2H-benzo[b][1,4]oxazin-3(4H)-one] |  |  | 0.007 |  | 10 | 12 mL min^−1 (g liver)^−1 |  |  | 0.06 |  |
| Cc1nn(C)c(C)c1NS(=O)(=O)c1c(Cl)cc(-c2ccnc(N3CCNCC3)c2)cc1Cl [DDD85646] |  |  |  |  |  |  |  |  |  | 0.4 |
